Assay results taken from patent US7157487B2, “Vla-4 inhibitors” (Daiichi Pharmaceutical Co., Ltd., priority 2000, dated 2007).
pKi: −log10 of the molar value.

Columns and labels:
[1] = molecular target: T1, integrins haα4 and β1 (VLA-4) expressed on CHO cells (Homo sapiens, UniProt P05556+P13612); assay: In vitro Evaluation Test (1): binding of Eu3+-hVCAM-1 D1D7-IgG to CHO cells expressing integrins α4 and β1; settings: inhibition of Eu3+-hVCAM-1 D1D7-IgG binding to CHO cells expressing α4β1; Ki calculated from IC50
T1 construct: expressed in transfected cells; host or cells: CHO cells
T1 sequence (P13612 34-1032): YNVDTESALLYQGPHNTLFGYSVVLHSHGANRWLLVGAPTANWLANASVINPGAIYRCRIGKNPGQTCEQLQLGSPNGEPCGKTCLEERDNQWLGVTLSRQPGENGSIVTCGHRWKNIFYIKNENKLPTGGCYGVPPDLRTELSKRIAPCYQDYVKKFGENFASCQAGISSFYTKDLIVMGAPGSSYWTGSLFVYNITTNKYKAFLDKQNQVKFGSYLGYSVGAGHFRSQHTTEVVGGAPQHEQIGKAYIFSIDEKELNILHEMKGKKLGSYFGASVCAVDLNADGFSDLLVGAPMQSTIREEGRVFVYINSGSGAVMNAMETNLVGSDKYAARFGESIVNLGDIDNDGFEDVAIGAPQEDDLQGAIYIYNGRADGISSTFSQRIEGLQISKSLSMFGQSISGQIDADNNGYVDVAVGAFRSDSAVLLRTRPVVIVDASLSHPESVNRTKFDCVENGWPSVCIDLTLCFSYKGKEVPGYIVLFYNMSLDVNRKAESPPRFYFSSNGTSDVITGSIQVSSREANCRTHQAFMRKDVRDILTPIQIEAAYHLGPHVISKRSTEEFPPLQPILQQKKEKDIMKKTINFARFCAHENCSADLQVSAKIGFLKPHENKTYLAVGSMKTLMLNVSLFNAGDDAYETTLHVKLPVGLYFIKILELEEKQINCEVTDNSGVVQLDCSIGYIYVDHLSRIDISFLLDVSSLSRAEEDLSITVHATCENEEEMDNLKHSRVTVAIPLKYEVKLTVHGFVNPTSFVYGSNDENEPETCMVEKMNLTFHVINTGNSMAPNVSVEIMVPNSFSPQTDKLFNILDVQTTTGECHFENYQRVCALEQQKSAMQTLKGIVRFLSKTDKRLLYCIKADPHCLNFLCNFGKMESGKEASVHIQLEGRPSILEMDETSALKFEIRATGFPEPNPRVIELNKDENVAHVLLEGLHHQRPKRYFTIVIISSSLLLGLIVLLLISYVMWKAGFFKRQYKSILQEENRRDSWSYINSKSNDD
T1 sequence (P05556 21-798): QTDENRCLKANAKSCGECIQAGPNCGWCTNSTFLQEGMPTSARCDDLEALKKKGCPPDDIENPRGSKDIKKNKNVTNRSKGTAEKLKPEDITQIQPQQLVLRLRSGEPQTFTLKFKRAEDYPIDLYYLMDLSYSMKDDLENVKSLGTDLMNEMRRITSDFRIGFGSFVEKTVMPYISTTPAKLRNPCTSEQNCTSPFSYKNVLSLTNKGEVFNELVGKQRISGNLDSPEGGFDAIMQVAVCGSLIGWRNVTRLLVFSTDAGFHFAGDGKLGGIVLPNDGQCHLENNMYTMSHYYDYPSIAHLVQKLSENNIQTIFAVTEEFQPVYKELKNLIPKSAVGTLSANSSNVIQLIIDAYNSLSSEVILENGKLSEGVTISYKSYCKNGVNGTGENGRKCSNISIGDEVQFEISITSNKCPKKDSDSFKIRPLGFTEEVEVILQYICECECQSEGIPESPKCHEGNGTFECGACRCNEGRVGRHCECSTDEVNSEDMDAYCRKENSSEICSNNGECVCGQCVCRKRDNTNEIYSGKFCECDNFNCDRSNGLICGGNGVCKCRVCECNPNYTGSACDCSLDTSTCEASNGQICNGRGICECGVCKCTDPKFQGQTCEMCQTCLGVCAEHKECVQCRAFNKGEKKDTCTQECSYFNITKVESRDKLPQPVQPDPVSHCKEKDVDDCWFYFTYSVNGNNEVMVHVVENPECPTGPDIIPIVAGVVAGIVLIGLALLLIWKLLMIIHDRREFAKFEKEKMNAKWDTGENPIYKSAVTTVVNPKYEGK
Summary of the method: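 CHO cells transduced with human α4 and β1 were grown for 2 days. They were incubated 1 h at room temperature with Eu3+-hVCAM-1 D1D7-IgG (diluted to 2 nM before addition) and compound, with or without 6% HSA, in HEPES pH 7.5 containing Ca2+, Mg2+ and 4 mM Mn2+. Time-resolved fluorescence gave IC50; Ki used a Scatchard-derived Kd (0.06–20 nM).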

[2] = Evaluation of oral bioavailability by mouse bioassay; assay type: in vivo; settings: 10 mg/kg oral, female Balb/C mice, serum 15 minutes after administration, read-out: Blood level
Method: A test compound was suspended or dissolved in a proper administration medium to give a concentration of 1 mg/ml. To 7 to 9 week old female Balb/C mice, 10 mg/kg of the resulting suspension or solution was orally administered. Fifteen minutes after the administration, blood was collected from the postcava under anesthesia with ether and the serum was separated from it. The concentration of each test compound was determined by estimating the serum level from a calibration curve obtained with VCAM-1/VLA-4 inhibitory activity as an index or measuring the concentration by using LC/MS/MS.

Structure (SMILES) | pKi [1] | concentration at 15 min [2] [ng/mL]
O=C(O)C1CCC(OC[C@@H]2C[C@H](F)CN2C(=O)Cc2ccc3nc(Nc4ccccc4Br)oc3c2)CC1 (single isomer, unassigned) [25 (Isomer A)] | 7.74 | 1090
CO[C@@H]1CN(C(=O)Cc2ccc3nc(Nc4ccccc4C)oc3c2)C[C@@H]1Oc1ccc(C(=O)O)cc1 [Example 155, 4-((4R)-Methoxy-1-((2-(2-methylphenylamino)-6-benzoxazolyl)acetyl)-(3S)-pyrrolidinyloxy)benzoic acid] | 7.70 | 571
COC[C@H]1CC[C@@H](CO[C@H]2CC[C@H](C(=O)O)CC2)N1C(=O)Cc1cc(Cl)c(NC(=O)c2cn(C)c3ccccc23)cc1F [Example 164, trans-4-(1-((5-Chloro-2-fluoro-4-((1-methyl-3-indolylcarbonyl)amino)phenyl)acetyl)-(5R)-methoxymethyl-(2S)-pyrrolidinylmethoxy)cyclohexanecarboxylic acid] | 8.19 | 2300
CO[C@H]1C[C@@H](CO[C@H]2CC[C@H](C(=O)O)CC2)N(C(=O)Cc2cc(Cl)c(NC(=O)c3cn(C)c4ccccc34)cc2Cl)C1 [Example 170, trans-4-(1-(2,5-Dichloro-4-((1-methyl-1H-3-indolylcarbonyl)amino)phenylacetyl)-(4S)-methoxy-(2S)-pyrrolidinylmethoxy)cyclohexanecarboxylic acid] | 8.37 | 3360
CS[C@H]1C[C@@H](CO[C@H]2CC[C@H](C(=O)O)CC2)N(C(=O)Cc2cc(Cl)c(NC(=O)c3cn(C)c4ccccc34)cc2F)C1 [Example 125, trans-4-(1-((5-Chloro-2-fluoro-4-((1-methyl-3-indolylcarbonyl)amino)phenyl)acetyl)-(4S)-methylthio-(2S)-pyrrolidinylmethoxy)cyclohexanecarboxylic acid] | 8.19 | 2570
O=C(Cc1ccc(Nc2nc3cc(F)ccc3s2)c(Cl)c1)N1C[C@@H](F)C[C@H]1CO[C@H]1CC[C@H](C(=O)O)CC1 [Example 62, trans-4-(1-(3-Chloro-4-(5-fluoro-2-benzothiazolyl)aminophenylacetyl)-(4S)-fluoro-(2)-pyrrolidinylmethoxy)cyclohexanecarboxylic acid] | 8.47 | 3200
COC[C@H]1C[C@@H](CO[C@H]2CC[C@H](C(=O)O)CC2)N(C(=O)Cc2cc(Cl)c(NC(=O)c3nn(C)c4ccccc34)cc2F)C1 [Example 139, trans-4-(1-(5-Chloro-2-fluoro-4-((1-methyl-1H-indazole-3-indazolylcarbonyl)amino)phenylacetyl)-(4S)-methoxymethyl-(2S)-pyrrolidinylmethoxy)cyclohexanecarboxylic acid] | 8.04 | 2430
O=C(Nc1cc(F)c(CC(=O)N2C[C@@H](F)C[C@H]2CO[C@H]2CC[C@H](C(=O)O)CC2)cc1Cl)N1CCc2ccccc21 [Example 91, trans-4-(1-(5-Chloro-2-fluoro-4-(1-(indolinyl)carbonylamino)phenylacetyl)-(4S)-fluoro-(2S)-pyrrolidinylmethoxy)cyclohexanecarboxylic acid] | 8.70 | 2960
Cn1cc(C(=O)Nc2cc(F)c(CC(=O)N3CCC[C@H]3CO[C@H]3CC[C@H](C(=O)O)CC3)cc2Cl)c2ccccc21 [Example 130, trans-4-(1-((5-Chloro-2-fluoro-4-(1-methyl-3-indolylcarbonylamino)phenyl)acetyl)-(2S)-pyrrolidinylmethoxy)-1-cyclohexanecarboxylic acid] | 8.06 | 3590
O=C(Nc1ccc(CC(=O)N2C[C@@H](F)C[C@H]2CO[C@H]2CC[C@H](C(=O)O)CC2)cc1Cl)N1CCc2ccc(F)cc21 [Example 92] | 8.57 | 1990
Cn1cc(-c2nc3ccc(CC(=O)N4C[C@@H](F)C[C@H]4CO[C@H]4CC[C@H](C(=O)O)CC4)cc3o2)c2cc(Cl)ccc21 [Example 96, trans-4-(1-((2-(5-Chloro-1-methyl-3-indolyl)-6-benzoxazolyl)acetyl)-(4S)-fluoro-(2S)-pyrrolidinylmethoxy)cyclohexanecarboxylic acid] | 7.70 | 
O=C(Nc1ccc(CC(=O)N2C[C@@H](F)C[C@H]2CO[C@H]2CC[C@H](C(=O)O)CC2)cc1Cl)c1nccc2ccc(F)cc12 [Example 82, trans-4-(1-((3-Chloro-4-((7-fluoro-1-isoquinolinylcarbonyl)amino)phenyl)acetyl)-(4S)-fluoro-(2S)-pyrrolidinylmethoxy)cyclohexanecarboxylic acid] | 7.74 | 
Cc1ccccc1Nc1nc2ccc(CC(=O)N3C[C@@H](F)C[C@H]3COC3CCC(C(=O)O)CC3)cc2o1 (single isomer, unassigned) [21 (Isomer G)] | 6.42 | 
O=C(O)c1ccc(OC[C@@H]2C[C@H](F)CN2C(=O)Cc2ccc3nc(Nc4ccccc4)oc3c2)cc1 [Example 1] | 7.52 | 
O=C(Cc1ccc(Nc2nc3ccc(F)cc3s2)c(Cl)c1)N1C[C@@H](F)C[C@H]1CO[C@H]1CC[C@H](C(=O)O)CC1 [Example 57, trans-4-(1-(3-Chloro-4-(6-fluoro-2-benzothiazolyl)aminophenylacetyl)-(4S)-fluoro-(2S)-pyrrolidinylmethoxy)cyclohexanecarboxylic acid] | 8.14 | 
O=C(Cc1ccc(Nc2nc3cccc(F)c3o2)c(Cl)c1)N1C[C@@H](F)C[C@H]1CO[C@H]1CC[C@H](C(=O)O)CC1 [Example 53, trans-4-(1-(3-Chloro-4-(2-(7-fluorobenzoxazolyl))aminophenylacetyl)-(4S)-fluoro-(2S)-pyrrolidinylmethoxy)cyclohexanecarboxylic acid] | 7.49 | 
Cn1nc(C(=O)Nc2cc(F)c(CC(=O)N3C[C@@H](S(C)(=O)=O)C[C@H]3CO[C@H]3CC[C@H](C(=O)O)CC3)cc2Cl)c2ccccc21 [Example 129, trans-4-(1-((5-Chloro-2-fluoro-4-((1-methyl-3-indazolylcarbonyl)amino)phenyl)acetyl)-(4S)-methanesulfonyl-(2S)-pyrrolidinylmethoxy)cyclohexanecarboxylic acid] | 8.82 | 
COc1cc(CC(=O)N2C[C@@H](F)C[C@H]2CO[C@H]2CC[C@H](C(=O)O)CC2)ccc1NC(=O)c1cc2ccccc2[nH]1 [Example 78, trans-4-(1-((4-((2-Indolylcarbonyl)amino)-3-methoxyphenyl)acetyl)-(4S)-fluoro-(2S)-pyrrolidinylmethoxy)cyclohexanecarboxylic acid] | 7.85 | 
O=C(Nc1ccc(CC(=O)N2C[C@@H](F)C[C@H]2COC2CCC(C(=O)O)CC2)cc1Cl)c1c[nH]c2ccccc12 (stereo partly drawn) [Example 38, 4-(1-(3-Chloro-4-(3-indolylcarbonylamino)phenylacetyl)-(4S)-fluoro-(2S)-pyrrolidinylmethoxy)cyclohexanecarboxylic acid] | 9.37 | 
CO[C@H]1C[C@@H](CO[C@H]2CC[C@H](C(=O)O)CC2)N(C(=O)Cc2ccc3nc(Nc4ccccc4Cl)oc3c2F)C1 (relative stereo) [Example 114, trans-4-(1-((2-(2-chlorophenylamino)-7-fluoro-6-benzoxazolyl)acetyl)-(4S)-methoxy-(2S)-pyrrolidinylmethoxy)cyclohexanecarboxylic acid] | 8.32 | 
